Experiments:
Assay in all cases: DSF thermal shift
Assay type in all cases: binding
Brd2(1)*(Trp097His) = target: T1, Brd2(1)*(Trp097His) (Homo sapiens, UniProt P25440, W97H); conditions: mutant
T1 construct: Plasmids of the eight single BET bromodomain constructs Brd2(1), Brd2(2), Brd3(1), Brd3(2); His6 (N); made in house; host or cells: E. coli BL21(DE3)
Experimental: (§1) DSF assays were performed on a LightCycler®480 from Roche or a Mx3005P Real Time PCR machine from Stratagene. […] SYPRO®Orange from Invitrogen Molecular Probes® was used as a reporter dye to monitor the denaturing process of the proteins. Samples were assayed on a 96-well plate with final protein concentrations of 2 μM for the LightCycler®480 and 6 μM for Mx3005P. Compounds were added at a final concentration of 10 μM for the LightCycler®480 and 30 μM for Mx3005P, while the tetra acetylated histone peptide was added to a final concentration of 100 μM and 300 μM respectively. […] The temperature was raised with a step of 0.6° C. per minute from 37° C. to 95° C. with the LightCycler®480 collecting 39 measurements per ° C., and 1° C. per minute from 25° C. to 95° C. with Mx3005P, collecting fluorescence readings at the end of each interval. Each sample was run in triplicates.
(§2) Collected data was analysed by IGOR Pro 6, a scientific software tool from Wave Metrics, Inc. Analysis was done following the recommendations of Niesen et al.. Fluorescence intensity was plotted as a function of temperature, generating a sigmoidal curve described by a two-state transition from folded to unfolded protein. Curves were fitted by the following sigmoidal equation: […]
(§3) A1 and A2 are the values of minimum and maximum intensities, respectively, x0 is the inflection point and dx is the rate. Fitted curves were differentiated in IGOR Pro 6 and the maximum of the first derivative was identified using the same program. These values correspond to the inflection points of the transition curves and thus to the melting temperatures of the proteins (Tm).

Brd2(1) = target: T2, Brd2(1) (Homo sapiens, UniProt P25440); conditions: wild type
T2 construct: Plasmids of the eight single BET bromodomain constructs Brd2(1), Brd2(2), Brd3(1), Brd3(2); His6 (N); made in house; host or cells: E. coli BL21(DE3)
Experimental: as §1, §2, §3

Brd2(1)*(Trp097Phe) = target: T3, Brd2(1)*(Trp097Phe) (Homo sapiens, UniProt P25440, W97F); conditions: mutant
T3 construct: Plasmids of the eight single BET bromodomain constructs Brd2(1), Brd2(2), Brd3(1), Brd3(2); His6 (N); made in house; host or cells: E. coli BL21(DE3)
Experimental: as §1, §2, §3

Brd2(2)*(Trp370His) = target: T4, Brd2(2)*(Trp370His) (Homo sapiens, UniProt P25440, W370H); conditions: mutant
T4 construct: Plasmids of the eight single BET bromodomain constructs Brd2(1), Brd2(2), Brd3(1), Brd3(2); His6 (N); made in house; host or cells: E. coli BL21(DE3)
Experimental: as §1, §2, §3

Brd2(2) = target: T5, Brd2(2) (Homo sapiens, UniProt P25440); conditions: wild type
T5 construct: Plasmids of the eight single BET bromodomain constructs Brd2(1), Brd2(2), Brd3(1), Brd3(2); His6 (N); made in house; host or cells: E. coli BL21(DE3)
Experimental: as §1, §2, §3

Brd2(2)*(Trp370Phe) = target: T6, Brd2(2)*(Trp370Phe) (Homo sapiens, UniProt P25440, W370F); conditions: mutant
T6 construct: Plasmids of the eight single BET bromodomain constructs Brd2(1), Brd2(2), Brd3(1), Brd3(2); His6 (N); made in house; host or cells: E. coli BL21(DE3)
Experimental: as §1, §2, §3

Brd2(1)*(Met165Ala) = Brd2(1)*(Met165Ala) (Homo sapiens, UniProt P25440, M165A); parameters: Plasmids of the eight single BET bromodomain constructs Brd2(1), Brd2(2), Brd3(1), Brd3(2); His6 (N); made in house; host or cells: E. coli BL21(DE3); conditions: mutant
Experimental: (§4) DSF assays were performed on a LightCycler®480 from Roche or a Mx3005P Real Time PCR machine from Stratagene. Prior to DSF assays, frozen proteins were buffer exchanged using Vivaspin®6 concentrators with a 10 kDa cutoff on a Centrifuge 5430 from Eppendorf at a speed of 6000×g to remove glycerol and to buffer the proteins in 20 mM HEPES pH 7.5 at 25° C. and 100 mM NaCl. SYPRO®Orange from Invitrogen Molecular Probes® was used as a reporter dye to monitor the denaturing process of the proteins. Samples were assayed on a 96-well plate with final protein concentrations of 2 μM for the LightCycler®480 and 6 μM for Mx3005P. Compounds were added at a final concentration of 10 μM for the LightCycler®480 and 30 μM for Mx3005P, while the tetra acetylated histone peptide was added to a final concentration of 100 μM and 300 μM respectively. […] The temperature was raised with a step of 0.6° C. per minute from 37° C. to 95° C. with the LightCycler®480 collecting 39 measurements per ° C., and 1° C. per minute from 25° C. to 95° C. with Mx3005P, collecting fluorescence readings at the end of each interval. Each sample was run in triplicates.
as §2, §3

Brd2(1)*(Met165-Leu) = target: T7, Brd2(1)*(Met165-Leu) (Homo sapiens, UniProt P25440, M165L); conditions: mutant
T7 construct: Plasmids of the eight single BET bromodomain constructs Brd2(1), Brd2(2), Brd3(1), Brd3(2); His6 (N); made in house; host or cells: E. coli BL21(DE3)
Experimental: as §4, §2, §3

Brd2(2)*(Met438-Ala) = target: T8, Brd2(2)*(Met438-Ala) (Homo sapiens, UniProt P25440, M438A); conditions: mutant
T8 construct: Plasmids of the eight single BET bromodomain constructs Brd2(1), Brd2(2), Brd3(1), Brd3(2); His6 (N); made in house; host or cells: E. coli BL21(DE3)
Experimental: as §4, §2, §3

Brd2(2)*(Met438-Leu) = target: T9, Brd2(2)*(Met438-Leu) (Homo sapiens, UniProt P25440, M438L); conditions: mutant
T9 construct: Plasmids of the eight single BET bromodomain constructs Brd2(1), Brd2(2), Brd3(1), Brd3(2); His6 (N); made in house; host or cells: E. coli BL21(DE3)
Experimental: as §4, §2, §3

T3 sequence (P25440 74-180 W97F limits assumed): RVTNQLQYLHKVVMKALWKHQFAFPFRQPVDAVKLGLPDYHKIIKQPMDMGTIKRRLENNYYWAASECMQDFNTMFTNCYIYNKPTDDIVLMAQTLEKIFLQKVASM
T2 sequence (P25440 74-180 limits assumed): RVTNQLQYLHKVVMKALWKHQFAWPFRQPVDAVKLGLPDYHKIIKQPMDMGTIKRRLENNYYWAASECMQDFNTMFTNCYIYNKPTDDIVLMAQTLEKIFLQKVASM
T4 sequence (P25440 344-453 W370H limits assumed): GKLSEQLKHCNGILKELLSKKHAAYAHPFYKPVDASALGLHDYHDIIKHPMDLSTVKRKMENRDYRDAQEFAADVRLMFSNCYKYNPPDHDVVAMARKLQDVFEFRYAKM
T6 sequence (P25440 344-453 W370F limits assumed): as the sequence (P25440 344-453 W370H limits assumed) above, with H27F counted along it
T5 sequence (P25440 344-453 limits assumed): as the sequence (P25440 344-453 W370H limits assumed) above, with H27W counted along it
T1 sequence (P25440 74-180 W97H limits assumed): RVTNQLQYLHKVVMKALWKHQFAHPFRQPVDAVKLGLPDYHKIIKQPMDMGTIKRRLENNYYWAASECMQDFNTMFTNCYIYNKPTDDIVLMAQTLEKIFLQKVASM
T7 sequence (P25440 74-180 M165L limits assumed): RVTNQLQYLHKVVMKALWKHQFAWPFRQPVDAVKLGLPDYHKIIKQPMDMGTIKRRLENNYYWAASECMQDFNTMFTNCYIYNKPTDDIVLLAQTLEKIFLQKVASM
Chain of Brd2(1)*(Met165Ala) (P25440 74-180 M165A limits assumed): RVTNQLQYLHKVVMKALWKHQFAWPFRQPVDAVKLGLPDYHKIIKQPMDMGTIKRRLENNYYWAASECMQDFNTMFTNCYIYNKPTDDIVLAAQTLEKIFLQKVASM
T9 sequence (P25440 344-453 M438L limits assumed): as the sequence (P25440 344-453 W370H limits assumed) above, with H27W, M95L counted along it
T8 sequence (P25440 344-453 M438A limits assumed): as the sequence (P25440 344-453 W370H limits assumed) above, with H27W, M95A counted along it

Compound	Thermal stabilisation brd2(1)W097H (Brd2(1)*(Trp097His)) [°C]	ΔTm Brd2(1)*(Tryp097-His) (Brd2(1)*(Trp097His)) [K]	Thermal stabilisation brd2(1) (Brd2(1)) [°C]	ΔTm Brd2(1) (Brd2(1)) [K]	Thermal stabilisation brd2(1)W097F (Brd2(1)*(Trp097Phe)) [°C]	ΔTm Brd2(1)*(Tryp097-Phe) (Brd2(1)*(Trp097Phe)) [K]	Thermal stabilisation brd2(2)W370H (Brd2(2)*(Trp370His)) [°C]	ΔTm Brd2(2)*(Tryp370-His) (Brd2(2)*(Trp370His)) [K]	Thermal stabilisation brd2(2) (Brd2(2)) [°C]	ΔTm Brd2(2) (Brd2(2)) [K]	Thermal stabilisation brd2(2)W370F (Brd2(2)*(Trp370Phe)) [°C]	ΔTm Brd2(2)*(Tryp370-Phe) (Brd2(2)*(Trp370Phe)) [K]	ΔTm Brd2(1)*(Met165-Ala) (Brd2(1)*(Met165Ala)) [K]	ΔTm Brd2(1)*(Met165-Leu) (Brd2(1)*(Met165-Leu)) [K]	ΔTm Brd2(2)*(Met165-Ala) (Brd2(2)*(Met438-Ala)) [K]	ΔTm Brd2(2)*(Met165-Leu) (Brd2(2)*(Met438-Leu)) [K]
COC(=O)CC1N=C(c2ccc(Cl)cc2C)c2cc(OC)ccc2-n2c(C)nnc21 (racemic) [Compound 8, (+−)-methyl 2-(6-(4-chloro-2-methylphenyl)-8-methoxy-1-methyl-4H-benzo[f][1,2,4]triazolo[4,3-a][1,4]diazepin-4-yl)acetate]	0.9 ± 0.3	0.9 ± 0.3	6.3 ± 0.1	6.3 ± 0.1	1.4 ± 0.2	1.4 ± 0.2	1.1 ± 0.2	1.1 ± 0.2	6.6 ± 0.2	6.6 ± 0.2	2.8 ± 0.1	2.8 ± 0.1				
COC(=O)CC1N=C(c2ccc(Cl)c(C)c2)c2cc(OC)ccc2-n2c(C)nnc21 (racemic) [Compound 9, (+−)-methyl 2-(6-(4-chloro-3-methylphenyl)-8-methoxy-1-methyl-4H-benzo[f][1,2,4]triazolo[4,3-a][1,4]diazepin-4-yl)acetate]	0.2 ± 0.2	0.2 ± 0.2	1.5 ± 0.2	1.5 ± 0.2	−0.1 ± 0.2	−0.1 ± 0.2	1.0 ± 0.3	1.0 ± 0.3	3.2 ± 0.1	3.2 ± 0.1	1.5 ± 0.0	1.5 ± 0.0				
COC(=O)CC1N=C(c2cc(C)ccc2C)c2cc(OC)ccc2-n2c(C)nnc21 (racemic) [Compound 10, (+−)-methyl 2-(6-(2,5-dimethylphenyl)-8-methoxy-1-methyl-4H-benzo[f][1,2,4]triazolo[4,3-a][1,4]diazepin-4-yl)acetate]	−0.4 ± 0.3	−0.4 ± 0.3	1.8 ± 0.2	1.8 ± 0.2	0.1 ± 0.2	0.1 ± 0.2	−0.1 ± 0.1	−0.1 ± 0.1	3.5 ± 0.1	3.5 ± 0.1	0.6 ± 0.1	0.6 ± 0.1				
COC(=O)CC1N=C(c2cc(Cl)ccc2Cl)c2cc(OC)ccc2-n2c(C)nnc21 (centres unmarked) [Compound 17]		−0.4 ± 0.2		1.2 ± 0.2		0.0 ± 0.2		−0.4 ± 0.2		2.5 ± 0.2		0.3 ± 0.0				
Cc1cc(C)c(S(=O)(=O)Nc2ccc3c(c2)CN(C)C(=O)N3)c(C)c1 [Compound 42, 2,4,6-trimethyl-N-(3-methyl-2-oxo-1,2,3,4-tetrahydroquinazolin-6 yl)benzenesulfonamide]		0.2 ± 0.4		0.7 ± 0.3		0.7 ± 0.2		0.2 ± 0.2		2.7 ± 0.5		1.8 ± 0.2				
CN1Cc2cc(NS(=O)(=O)c3c(Cl)cccc3Cl)ccc2NC1=O [Compound 43, 2,6-dichloro-N-(3-methyl-2-oxo-1,2,3,4-tetrahydroquinazolin-6-yl)benzenesulfonamide]		0.2 ± 0.2		1.2 ± 0.2		0.2 ± 0.3		0.3 ± 0.1		0.6 ± 0.1		1.8 ± 0.3				
CN1Cc2cc(NS(=O)(=O)c3ccccc3-c3ccccc3)ccc2NC1=O [Compound 44, N-(3-methyl-2-oxo-1,2,3,4-tetrahydroquinazolin-6-yl)-[1,1′-biphenyl]-2-sulfonamide]		1.3 ± 0.2		2.8 ± 0.4		1.8 ± 0.3		0.5 ± 0.3		2.1 ± 0.4		2.2 ± 0.3				
Cc1cccc(Cl)c1S(=O)(=O)Nc1ccc2c(c1)CN(C)C(=O)N2 [Compound 45, 2-chloro-6-methyl-N-(3-methyl-2-oxo-1,2,3,4-tetrahydroquinazolin-6-yl)benzenesulfonamide]		0.0 ± 0.3		3.9 ± 0.2				0.8 ± 0.1		5.3 ± 0.5		2.3 ± 0.1				
CN1Cc2cc(NS(=O)(=O)c3ccc(C(C)(C)C)cc3)ccc2NC1=O [Compound 46, 4-(tert-butyl)-N-(3-methyl-2-oxo-1,2,3,4-tetrahydroquinazolin-6-yl)benzenesulfonamide]				1.1 ± 0.2						0.8 ± 0.1			5.1 ± 0.2	0.1 ± 0.1	2.5 ± 0.2	0.3 ± 0.2
COc1ccc(S(=O)(=O)Nc2ccc3c(c2)CN(C)C(=O)N3)cc1 [Compound 47, 4-methoxy-N-(3-methyl-2-oxo-1,2,3,4-tetrahydroquinazolin-6-yl)benzenesulfonamide]				2.4 ± 0.1						3.1 ± 0.4			0.0 ± 0.3	0.1 ± 0.3	1.6 ± 0.3	1.3 ± 0.2

— patent US20170122958A1, “Enzymes Functional Probes” (University of Dundee, priority 2013, published 2017)
